ChEMBL document CHEMBL1130948, “Synthesis of sialyl Lewis X mimetics using the Ugi four-component reaction” (Bioorg Med Chem Lett, 1998)
Several values for one entry are separate records, joined by “and”; a condition that tells them apart may be missing. Identical values can stand only once. Activity calls are given as the source filed them. The rule behind the calls is not given here.

Tests used:
P-selectin [1] = target: T1, P-selectin (Homo sapiens, UniProt P16109); assay: Compound was tested in a cell-free SLe-polyacrylamide glycoconjugate binding assay (assay B) in P-selectin
T1 sequence (P16109 whole entry): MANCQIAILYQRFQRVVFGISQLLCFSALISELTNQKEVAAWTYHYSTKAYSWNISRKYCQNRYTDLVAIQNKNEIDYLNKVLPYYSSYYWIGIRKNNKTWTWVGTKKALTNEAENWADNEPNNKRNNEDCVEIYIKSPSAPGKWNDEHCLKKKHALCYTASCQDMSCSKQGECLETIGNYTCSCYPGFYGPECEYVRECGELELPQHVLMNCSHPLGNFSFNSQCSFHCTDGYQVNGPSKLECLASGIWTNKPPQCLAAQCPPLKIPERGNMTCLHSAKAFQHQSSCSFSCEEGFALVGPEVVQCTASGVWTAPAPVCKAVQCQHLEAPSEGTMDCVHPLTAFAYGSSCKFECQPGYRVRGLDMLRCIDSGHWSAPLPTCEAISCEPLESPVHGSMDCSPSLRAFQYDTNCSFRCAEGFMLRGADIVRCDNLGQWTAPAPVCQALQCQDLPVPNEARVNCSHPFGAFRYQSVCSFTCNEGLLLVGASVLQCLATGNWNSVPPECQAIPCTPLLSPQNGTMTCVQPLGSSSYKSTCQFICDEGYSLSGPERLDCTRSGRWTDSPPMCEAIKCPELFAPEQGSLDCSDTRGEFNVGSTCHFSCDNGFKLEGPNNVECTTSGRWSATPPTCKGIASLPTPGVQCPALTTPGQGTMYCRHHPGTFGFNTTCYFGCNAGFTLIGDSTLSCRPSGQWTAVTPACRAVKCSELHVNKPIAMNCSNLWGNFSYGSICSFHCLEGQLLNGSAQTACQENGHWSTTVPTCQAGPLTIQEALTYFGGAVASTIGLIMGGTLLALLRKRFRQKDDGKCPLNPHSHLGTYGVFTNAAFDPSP

E-selectin [2] = target: T2, E-selectin (Homo sapiens, UniProt P16581); assay: Compound was tested in a cell-free SLe-polyacrylamide glycoconjugate binding assay (assay B) in Selectin E
T2 sequence (P16581 whole entry): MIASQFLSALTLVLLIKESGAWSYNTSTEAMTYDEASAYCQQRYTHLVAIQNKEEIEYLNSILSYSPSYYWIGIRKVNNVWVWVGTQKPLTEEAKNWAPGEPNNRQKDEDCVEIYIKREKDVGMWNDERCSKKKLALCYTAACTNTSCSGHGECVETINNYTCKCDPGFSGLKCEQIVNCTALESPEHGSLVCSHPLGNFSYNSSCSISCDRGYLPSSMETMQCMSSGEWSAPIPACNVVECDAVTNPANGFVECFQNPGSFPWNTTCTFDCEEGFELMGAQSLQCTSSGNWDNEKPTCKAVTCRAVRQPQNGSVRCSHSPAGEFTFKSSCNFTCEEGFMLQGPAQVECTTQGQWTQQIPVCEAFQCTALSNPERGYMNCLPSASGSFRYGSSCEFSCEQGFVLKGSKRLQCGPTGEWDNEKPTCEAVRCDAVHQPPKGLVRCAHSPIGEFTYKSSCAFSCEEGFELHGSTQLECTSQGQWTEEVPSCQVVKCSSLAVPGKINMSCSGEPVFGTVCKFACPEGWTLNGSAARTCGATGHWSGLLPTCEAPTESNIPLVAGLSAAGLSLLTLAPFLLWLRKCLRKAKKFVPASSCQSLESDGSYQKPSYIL

E-selectin [3] = target: T2, E-selectin; assay: Compound was tested in a cell-free SLe-polyacrylamide glycoconjugate binding assay (assay A) in Selectin E
P-selectin [4] = target: T1, P-selectin; assay: Tested in a cell-free SLe-polyacrylamide glycoconjugate binding assay (assay A) in P-selectin; inactive
[5] = target: T3, E-selectin (Homo sapiens) (UniProt P16581); assay: Compound was tested in a cell-free SLe-polymer/Selectin E assay, at 3 mM concentration.
T3 sequence (whole entry): T2 sequence (P16581 whole entry)

P-selectin [6] = target: T1, P-selectin; assay: Tested in a cell-free SLe-polyacrylamide glycoconjugate binding assay (assay A) in P-selectin
E-selectin [7] = target: T2, E-selectin; assay: Compound was tested in a cell-free SLe-polyacrylamide glycoconjugate binding assay (assay A) in Selectin E; inactive
[8] = target: T3, E-selectin (Homo sapiens); assay: Inhibitory activity against E-selectin was tested in a cell-free SLe-polymer/Selectin E assay, at 3 mM concentration.
P-selectin [9] = target: T1, P-selectin; assay: Compound was tested in a cell-free SLe-polyacrylamide glycoconjugate binding assay (assay A) in P-selectin; value ranges from 1-3
P-selectin [10] = target: T1, P-selectin; assay: Compound was tested in a cell-free SLe-polyacrylamide glycoconjugate binding assay (assay B) in P-selectin; value ranges from 1.3-2
[11] = target: T3, E-selectin (Homo sapiens); assay: Inhibitory activity against E-selectin was tested in a cell-free SLe-polymer/Selectin E assay, at 3 mM concentration; […]
[12] = target: T3, E-selectin (Homo sapiens); assay: (§1) Compound was tested in a cell-free SLe-polyacrylamide glycoconjugate binding assay (assay A) in Selectin E at 3 mM
[13] = target: T3, E-selectin (Homo sapiens); assay: as §1; remark: listed apart in the source
[14] = target: T4, P-selectin (Homo sapiens) (UniProt P16109); conditions: 1 mM
T4 sequence (whole entry): T1 sequence (P16109 whole entry)
Description: Compound was tested in a cell-free SLe-polyacrylamide glycoconjugate binding assay (assay A) in P-selectin at 1 mM

[15] = target: T3, E-selectin (Homo sapiens); assay: Inhibitory activity against E-selectin was tested in a cell-free SLe-polymer/Selectin E assay, at 3 mM concentration; […].

Compound | IC50 (P-selectin [1]) | IC50 (E-selectin [2]) | IC50 (E-selectin [3]) | other results
O=C(O)CNC(=O)C(CC1OC(CO)C(O)C(O)C1O)N(CC(=O)O)C(=O)C(F)(F)F (stereo not drawn) |  |  |  | inhibition [5]: 42%
CC1OC(CC(C(=O)NCCc2ccccc2)N(CC(=O)NC(CCC(=O)O)C(=O)O)C(=O)CCc2ccc(Oc3ccc(Oc4ccccc4)cc3)cc2)C(O)C(O)C1O (stereo not drawn) | 28 µM | > 4000 µM | 530 µM | IC50 (P-selectin [6]): 283 µM
CCOCCOCCOCCOCCCCOCC1OC(CC(=O)NC(CCC(=O)O)C(=O)O)C(O)C(O)C1O (stereo not drawn) | 20 µM | > 10000 µM |  | IC50 (E-selectin [7]): Not Active; IC50 (P-selectin [6]): > 3000 µM
CCCCCC(=O)N(CC(=O)O)C(CC1OC(CO)C(O)C(O)C1O)C(=O)NCC(=O)O (stereo not drawn) |  |  |  | inhibition [5]: 52%
O=C(O)CNC(=O)C(CC1OC(CO)C(O)C(O)C1O)N(CC(=O)O)C(=O)Cc1ccc2ccccc2c1 (stereo not drawn) |  |  |  | inhibition [8]: 51%
O=C(O)CNC(=O)C(CC1OC(CO)C(O)C(O)C1O)N(CC(=O)O)C(=O)Cc1cccc2ccccc12 (stereo not drawn) |  |  |  | inhibition [8]: 42%
O=C(O)CNC(=O)C(CC1OC(CO)C(O)C(O)C1O)N(CC(=O)O)C(=O)c1cccc2c1Cc1ccccc1-2 (stereo not drawn) |  |  |  | inhibition [8]: 48%
CC(=O)N[C@H]1[C@H]([C@H](O)[C@H](O)CO)O[C@@](O[C@H]2[C@@H](O)[C@@H](CO)O[C@@H](O[C@@H]([C@H](O[C@@H]3O[C@@H](C)[C@@H](O)[C@@H](O)[C@@H]3O)[C@H](C=O)NC(C)=O)[C@H](O)CO)[C@@H]2O)(C(=O)O)C[C@@H]1O [SIALYL LEWIS X] |  | 1090 µM | 480 µM | IC50 (P-selectin [10]): 1300 µM; IC50 (P-selectin [6]): > 3000 µM
C/C=C/C=C/C(=O)N(CC(=O)O)C(CC1OC(CO)C(O)C(O)C1O)C(=O)NCC(=O)O (stereo not drawn) |  |  |  | inhibition [11]: inactive
O=C(O)CCC(=O)N(C(CCC(=O)O)C(=O)O)C(CC1OC(CO)C(O)C(O)C1O)C(=O)NCC(=O)O (stereo not drawn) | 18 µM and 25 µM | > 4000 µM |  | IC50 (P-selectin [4]): Not Active; inhibition [12]: 45%; inhibition [13]: 45%; inhibition [14]: 29%
CCCCCCCCCCCCCC(=O)N(CC(=O)O)C(CC1OC(CO)C(O)C(O)C1O)C(=O)NCC(=O)O (stereo not drawn) |  |  |  | inhibition [8]: 32%
O=C(O)CNC(=O)C(CC1OC(CO)C(O)C(O)C1O)N(CC(=O)O)C(=O)CC1c2ccccc2-c2ccccc21 (stereo not drawn) |  |  |  | inhibition [15]: inactive
CC(=O)N(CC(=O)O)C(CC1OC(CO)C(O)C(O)C1O)C(=O)NCC(=O)O (stereo not drawn) |  |  |  | inhibition [5]: 28%
CC1OC(CC(=O)N(CC(=O)NC(CCC(=O)O)C(=O)O)C(CCc2ccc(Oc3ccc(Oc4ccccc4)cc3)cc2)C(=O)NCCc2ccccc2)C(O)C(O)C1O (stereo not drawn) | 76 µM | > 2500 µM | 950 µM | 
O=C(O)CNC(=O)C(CC1OC(CO)C(O)C(O)C1O)N(CC(=O)O)C(=O)c1ccc(-c2ccccc2)cc1 (stereo not drawn) |  |  |  | inhibition [15]: inactive
O=C(O)CNC(=O)C(CC1OC(CO)C(O)C(O)C1O)N(CC(=O)O)C(=O)c1ccccc1 (stereo not drawn) |  |  |  | inhibition [8]: 38%
O=C(O)CCC(NC(=O)CC1OC(COCCCc2ccc(Oc3ccc(Oc4ccccc4)cc3)cc2)C(O)C(O)C1O)C(=O)O (stereo not drawn) | 4 µM | > 10000 µM | 350 µM | IC50 (P-selectin [6]): 34 µM

More lines, main results first:

IC50 (P-selectin [1]) | IC50 (E-selectin [2]) | IC50 (E-selectin [3]) | Compound | other results
311 µM and 85 µM | > 2500 µM | > 3000 µM | CC(C(=O)NCCc1ccccc1)N(C(=O)CC1OC(COc2ccccc2)C(O)C(O)C1O)C(CCC(=O)O)C(=O)O (stereo not drawn) | 
28 µM | > 4000 µM | 3000 µM | COC(=O)CNC(=O)C(CCC(=O)O)N(C(=O)CC1OC(CO)C(O)C(O)C1O)C(CCC(=O)O)C(=O)O (stereo not drawn) | IC50 (P-selectin [4]): Not Active
39 µM and 142 µM | > 4000 µM | 3000 µM and > 3000 µM | COC(=O)CCC(=O)N(C(CCC(=O)O)C(=O)O)C(CC1OC(CO)C(O)C(O)C1O)C(=O)NCC(=O)OC (stereo not drawn) | IC50 (P-selectin [4]): Not Active
127 µM and 32 µM | 3420 µM and 3620 µM | 420 µM and 600 µM | COC(=O)CNC(=O)C(C)N(C(=O)CC1OC(COCCCc2ccc(Oc3ccc(Oc4ccccc4)cc3)cc2)C(O)C(O)C1O)C(CCC(=O)O)C(=O)O (stereo not drawn) | IC50 (P-selectin [9]): 1000 µM
15 µM | > 4000 µM | 3000 µM | O=C(O)CCC(C(=O)O)N(C(=O)CC1OC(CO)C(O)C(O)C1O)C(CCC(=O)O)C(=O)NCC(=O)O (stereo not drawn) | IC50 (P-selectin [4]): Not Active
87 µM and 136 µM | > 2500 µM | > 3000 µM | CC(C(=O)NC(C)(C)C)N(C(=O)CC1OC(COc2ccccc2)C(O)C(O)C1O)C(CCC(=O)O)C(=O)O (stereo not drawn) | 
 |  | 840 µM | COC(=O)CNC(=O)C(CC1OC(C)C(O)C(O)C1O)N(Cc1ccccc1)C(=O)C(NC(=O)CCC(=O)O)C(O)CO (stereo not drawn) | 
 | > 10000 µM | 360 µM and 1000 µM | COC(=O)CNC(=O)C(C)N(C(=O)CC1OC(CO)C(O)C(O)C1O)C(CCC(=O)O)C(=O)O (stereo not drawn) | 
41 µM and 43 µM | > 2500 µM | 3400 µM and 2800 µM | COC(=O)CNC(=O)C(C)N(C(=O)CC1OC(COc2ccccc2)C(O)C(O)C1O)C(CCC(=O)O)C(=O)O (stereo not drawn) | 
5 µM and 1 µM | > 10000 µM | 500 µM and 300 µM | CCOCCOCCOCCOCCCCOCC1OC(CC(=O)N(C(C)C(=O)NCC(=O)OC)C(CCC(=O)O)C(=O)O)C(O)C(O)C1O (stereo not drawn) | IC50 (P-selectin [6]): > 3000 µM
